Each structure is given as a SMILES string.

Consider 39 molecules from US9284283B2, “Macrocyclic compounds for modulating IL-17” (ENSEMBLE THERAPEUTICS CORPORATION, priority 2012, dated 2016).

In the test the target is T1, biotinylated human IL-17 (binding to IL17R/Fc) (Homo sapiens, UniProt Q16552).
T1 construct: purchased R&D Systems 317-ILB (IL-17, biotinylated); 177-IR (IL17R/Fc)
T1 sequence (Q16552 20-155 limits assumed): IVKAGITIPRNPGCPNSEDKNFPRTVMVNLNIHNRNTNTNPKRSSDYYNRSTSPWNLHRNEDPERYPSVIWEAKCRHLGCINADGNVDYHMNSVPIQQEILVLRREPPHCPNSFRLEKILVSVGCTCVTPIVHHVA
Put plainly: IL-17 competition ELISA II (captured IL17R/Fc, biotinylated IL-17). As for the experimental part: In this version, a high binding 96-well plate (Costar #9018) was coated with 20 nM of goat anti-human IgG (KPL 01-10-02) in PBS, 100 μL/well, for 30 min at 37° C. followed by 5 min at 4° C. The plate was then washed in PBST (PBS/0.05% Tween-20) on a plate washer, (BioTek ELx450) then blocked with protein-free blocking buffer (Thermo Scientific #37573) in 250 μL/well for 30 min on a shaker at room temperature, and then washed again. IL17R/Fc (R&D Systems #177-IR; 10 nM in PBST, 100 μL/well) was then added to all wells. The plate was then incubated for 30 minutes at room temperature on the shaker.
While the receptor capture step was underway, compound dilutions were prepared in PBST to a concentration of 1 μM in 1.5 mL tubes. After the receptor capture step, the plate was washed and 50 μL PBST was added to the wells in row B down to row H. Then, 62.5 μL of the 1 μM compound dilutions were added to the wells of row A. From row A, 12.5 μL of the compound solution was removed and added to row B with mixing and this process of 5-fold dilutions was continued, by row, to row G. One of the wells in row A received only PBST (62.5 μL) and this dilution series served as the no competitor control. Then, going up from row G to row A, 50 μL of b-IL-17 (biotinylated human IL-17, R&D Systems #317-ILB; 20 nM) was added to all wells. Row H received 50 μL of PBST and served as the blank row, i.e., no compound and no b-IL-17. The plate was then incubated for 30 minutes at room temperature on the shaker.
After the wash, 100 μL Streptavidin-Horseradish Peroxidase (SA-HRP) (KPL #14-30-00) at 25 ng/mL in PBST was added to each well in the plate and the plate incubated for 30 minutes at room temperature followed by wash and 100 μL SureBlue™ TMB (KPL #52-00-03). After sufficient color development (approx 3-6 minutes), the reaction was fixed by the addition of 100 μL/well 0.5 N HCl and absorbance was measured at 450 nm on a BioTek Synergy 2 plate reader. The absorbances of ‘no competitor’ control and blank control should not exceed 1.5 A.U. and 0.06 A.U., respectively.
Data was processed using BioAssay Enterprise v10.1.4 (CambridgeSoft) software. Linear OD λ450 were plotted against log concentration (x) and fitted to a 4-parameter logistic equation. IC50 was calculated using positive ‘no competitor’ control data as an upper limit and blank control as a lower limit in each assay.
(ELISA stands for enzyme-linked immunosorbent assay.)
As usually defined, the IC50 is the midpoint of a concentration-inhibition curve. As to `O=C1CC2(CCCC2)CC(=O)N[C@H](Cc2ccc(NC(=O)[C@H](Cc3ccccc3Cl)NC(=O)Cc3ccccc3)cc2)C(=O)NC/C=C/CCCCCN1` [Compound 283], the IC50 was 100 to 1000 nM.

With `O=C1CC2(CCCC2)CC(=O)N[C@H](Cc2ccc(NC(=O)[C@@H](NC(=O)Cc3ccccc3)C3CCCCC3)cc2)C(=O)NCCCCCCCCCN1` [Compound 350], the IC50 is 100 to 1000 nM.

Turning to `CN1CCCCCNC(=O)CC2(CCCC2)CC(=O)N(C)[C@H](Cc2ccc(N(C)C(=O)[C@H](Cc3ccccc3Cl)N(C)C(=O)Cc3ccccc3)cc2)C(=O)N(C)CC1=O` [Compound 363], the IC50 lay in the range of 100 to 1000 nM.

`O=C1CC2(CCCC2)CC(=O)N[C@H](Cc2ccc(NC(=O)[C@H](Cc3ccccc3Cl)NC(=O)Cc3ccc(CO)cc3)cc2)C(=O)NC/C=C/CCCCCN1` [Compound 365]: the half-maximal inhibitory concentration (IC50) is less than 100 nM.

As for `O=C1CC2(CCCC2)CC(=O)N[C@H](Cc2ccc(NC(=O)[C@H](Cc3ccccc3Cl)NC(=O)c3ccccc3)cc2)C(=O)NCCCCCCCCN1` [Compound 366], the IC50 lay in the range of 100 to 1000 nM.

With `CN1CCNC(=O)CC2(CCCC2)CC(=O)N(C)[C@H](Cc2ccc(NC(=O)[C@H](Cc3ccccc3)N(C)C(=O)c3ccccc3)cc2)C(=O)N2CCC[C@H]2C(=O)NCC1` [Compound 371], the IC50 is 1000 to 10000 nM.

As for `CN1CCCCCNC(=O)[C@@H]2CCCN2C(=O)[C@@H](Cc2ccc(NC(=O)[C@H](Cc3ccccc3)N(C)C(=O)c3ccccc3)cc2)N(C)C(=O)CC2(CCCC2)CC1=O` [Compound 383], the half-maximal inhibitory concentration (IC50) is 1000 to 10000 nM.

For `CN1CCCCCN(C)C(=O)CC2(CCCC2)CC(=O)N[C@H](Cc2ccc(NC(=O)[C@H](Cc3ccccc3Cl)NC(=O)Cc3ccccc3)cc2)C(=O)NCC1=O` [Compound 387], the IC50 is less than 100 nM.

For the molecule `O=C1CC2(CCCC2)CC(=O)N[C@H](Cc2ccc(NC(=O)[C@H](Cc3ccccc3Cl)NC(=O)Cc3ccccc3)cc2)C(=O)NCCCCN1` [Compound 391], the IC50 is less than 100 nM.

`O=C1CC2(CCCC2)CC(=O)N[C@H](Cc2ccc(NC(=O)[C@H](Cc3ccccc3Cl)NC(=O)Cc3ccccc3)cc2)C(=O)NCCCCCN1` [Compound 392]: the concentration for half-maximal inhibition (IC50) was less than 100 nM.

Take `O=C1CC2(CCCC2)CC(=O)N[C@H](Cc2ccc(NC(=O)[C@H](Cc3ccccc3Cl)NC(=O)Cc3ccc(CO)cc3)cc2)C(=O)NCCCCN1` [Compound 393]: the IC50 is less than 100 nM.

In the case of `O=C1CC2(CCCC2)CC(=O)N[C@H](Cc2ccc(NC(=O)[C@H](Cc3ccccc3Cl)NC(=O)Cc3ccc(CO)cc3)cc2)C(=O)NCCCCCN1` [Compound 394], the IC50 is less than 100 nM.

Consider `O=C1CNC(=O)[C@@H](Cc2ccc(NC(=O)[C@@H](NC(=O)CC3CCCCC3)C3CCCCC3)cc2)NC(=O)CC2(CCCC2)CC(=O)NCCCCCN1` [Compound 395], for which the IC50 is less than 100 nM.

In the case of `O=C1CNC(=O)[C@@H](Cc2ccc(NC(=O)[C@@H](NC(=O)c3ccc(Cl)cc3)C3CCCCC3)cc2)NC(=O)CC2(CCCC2)CC(=O)NCCCCCN1` [Compound 396], the IC50 was less than 100 nM.

As for `O=C1CC2(CCCC2)CC(=O)N[C@H](Cc2ccc(NC(=O)[C@H](Cc3ccccc3Cl)NC(=O)Cc3ccccc3)cc2)C(=O)NCCOCCN1` [Compound 397], the concentration for half-maximal inhibition (IC50) is less than 100 nM.

Regarding `O=C1CC2(CCCC2)CC(=O)N[C@H](Cc2ccc(NC(=O)[C@H](Cc3ccccc3Cl)NC(=O)Cc3ccccc3)cc2)C(=O)NCCCN1` [Compound 398], the concentration for half-maximal inhibition (IC50) is less than 100 nM.

As for `O=C1CC2(CCCC2)CC(=O)N[C@H](Cc2ccc(NC(=O)[C@H](Cc3ccccc3Cl)NC(=O)Cc3ccc(CO)cc3)cc2)C(=O)NCCOCCN1` [Compound 400], the IC50 is less than 100 nM.

Take `O=C1CC2(CCCC2)CC(=O)N[C@H](Cc2ccc(NC(=O)[C@H](Cc3ccccc3Cl)NC(=O)Cc3ccc(CO)cc3)cc2)C(=O)NCCCN1` [Compound 401]: the IC50 is less than 100 nM.

As for `CN1CCNC(=O)CC2(CCCC2)CC(=O)N[C@H](Cc2ccc(NC(=O)[C@H](Cc3ccccc3Cl)NC(=O)Cc3ccc(CO)cc3)cc2)C(=O)NCC1` [Compound 402], the IC50 was less than 100 nM.

As to `O=C1CNC(=O)[C@@H](Cc2ccc(NC(=O)[C@@H](NC(=O)c3ccc(F)cc3)C3CCCCC3)cc2)NC(=O)CC2(CCCC2)CC(=O)NCCCCCN1` [Compound 403], the IC50 was less than 100 nM.

In the case of `O=C1CNC(=O)[C@@H](Cc2ccc(NC(=O)[C@@H](NC(=O)Cc3c(F)cc(F)cc3F)C3CCCCC3)cc2)NC(=O)CC2(CCCC2)CC(=O)NCCCCCN1` [Compound 404], the concentration for half-maximal inhibition (IC50) was less than 100 nM.

`O=C1CC2(CCCC2)CC(=O)N[C@H](Cc2ccc(NC(=O)[C@@H](NC(=O)c3cccnc3)C3CCCCC3)cc2)C(=O)NCCCCCCCCCN1` [Compound 407]: the IC50 lay in the range of 100 to 1000 nM.

For the molecule `O=C1CC2(CCCC2)CC(=O)N[C@H](Cc2ccc(NC(=O)[C@@H](NC(=O)c3cccnc3)C3CCCCC3)cc2)C(=O)NCCCCN1` [Compound 409], the 50% inhibitory concentration (IC50) lay within 100 to 1000 nM.

On to `O=C1CC2(CCCC2)CC(=O)N[C@H](Cc2ccc(NC(=O)[C@@H](NC(=O)Cc3ccc(F)cc3)C3CCCCC3)cc2)C(=O)NCCCCN1` [Compound 410], for which the half-maximal inhibitory concentration (IC50) is 100 to 1000 nM.

Turning to `O=C1CC2(CCCC2)CC(=O)N[C@H](Cc2ccc(NC(=O)[C@H](Cc3ccccc3Cl)NC(=O)Cc3ccccc3)cc2)C(=O)NCCNCCN1` [Compound 411], the IC50 is less than 100 nM.

On to `O=C1CC2(CCCC2)CC(=O)N[C@H](Cc2ccc(NC(=O)[C@H](Cc3ccccc3Cl)NC(=O)Cc3ccc(CO)cc3)cc2)C(=O)NCCNCCN1` [Compound 412], for which the 50% inhibitory concentration (IC50) is 100 to 1000 nM.

As to `O=C1CNC(=O)[C@@H](Cc2ccc(NC(=O)[C@@H](NC(=O)Cc3ccccc3)c3ccccc3)cc2)NC(=O)CC2(CCCC2)CC(=O)NCCCCCN1` [Compound 415], the IC50 lay within 100 to 1000 nM.

Regarding `CN1CCNC(=O)CC2(CCCC2)CC(=O)N[C@H](Cc2ccc(NC(=O)[C@H](Cc3ccccc3Cl)NC(=O)Cc3ccccc3)cc2)C(=O)N[C@H](Cc2ccccc2)C(=O)N(C)CC1` [Compound 416], the IC50 is less than 100 nM.

Regarding `O=C1CC2(CCCC2)CC(=O)N[C@H](Cc2ccc(NC(=O)[C@@H](NC(=O)c3cccnc3)C3CCCCC3)cc2)C(=O)NCCOCCOCCN1` [Compound 417], the 50% inhibitory concentration (IC50) was in the range of 100 to 1000 nM.

Consider `O=C1CC2(CCCC2)CC(=O)N[C@H](Cc2ccc(NC(=O)[C@H](Cc3ccccc3Cl)NC(=O)c3cccnc3)cc2)C(=O)NCCCCN1` [Compound 420], for which the IC50 was 100 to 1000 nM.

`CN1CCCCCNC(=O)C(Cc2ccc(NC(=O)C(NC(=O)c3cccnc3)C3CCCCC3)cc2)NC(=O)CC2(CCCC2)CC1=O` (stereo not drawn) [Compound 421]: the IC50 was in the range of 1000 to 10000 nM.

For the molecule `CN1CCCCCNC(=O)CC2(CCCC2)CC(=O)NC(Cc2ccc(NC(=O)C(NC(=O)c3cccnc3)C3CCCCC3)cc2)C1=O` (stereo not drawn) [Compound 422], the IC50 fell in the range of 1000 to 10000 nM.

For the molecule `O=C1CC2(CCCC2)CC(=O)OCCCCCNC(=O)[C@@H](Cc2ccc(NC(=O)[C@@H](NC(=O)c3cccnc3)C3CCCCC3)cc2)N1` [Compound 423], the IC50 fell in the range of 1000 to 10000 nM.

For `CN1CCNCCOC(=O)CC2(CCCC2)CC(=O)N(C)[C@H](Cc2ccc(NC(=O)[C@H](Cc3ccccc3Cl)NC(=O)Cc3ccccc3)cc2)C(=O)N[C@H](Cc2ccccc2)C1=O` [Compound 426], the IC50 was 100 to 1000 nM.

With `C[C@H]1NC(=O)[C@@H](Cc2ccc(NC(=O)[C@H](Cc3ccccc3Cl)NC(=O)c3cnc4ccccc4c3)cc2)NC(=O)CC2(CCCC2)CC(=O)NCCCCCNC1=O` [Compound 428], the concentration for half-maximal inhibition (IC50) is less than 100 nM.

Regarding `C[C@H]1NC(=O)[C@@H](Cc2ccc(NC(=O)[C@H](Cc3ccccc3Cl)NC(=O)c3cncc4ccccc34)cc2)NC(=O)CC2(CCCC2)CC(=O)NCCCCCNC1=O` [Compound 429], the IC50 was less than 100 nM.

With `CN(C)CCOc1ccc(CC(=O)N[C@@H](Cc2ccccc2Cl)C(=O)Nc2ccc(C[C@H]3NC(=O)CC4(CCCC4)CC(=O)NCCCCCNC(=O)[C@@H](Cc4ccccc4)NC3=O)cc2)cc1` [Compound 431], the IC50 was less than 100 nM.

In the case of `NCCCC[C@H]1NC(=O)[C@@H](Cc2ccc(NC(=O)[C@H](Cc3ccccc3Cl)NC(=O)Cc3ccccc3)cc2)NC(=O)CC2(CCCC2)CC(=O)NCCCCCNC1=O` [Compound 432], the half-maximal inhibitory concentration (IC50) is less than 100 nM.

As to `CN1CCNCCNC(=O)CC2(CCCC2)CC(=O)N[C@H](Cc2ccc(NC(=O)[C@H](Cc3ccccc3Cl)NC(=O)Cc3ccccc3)cc2)C(=O)N[C@H](Cc2ccccc2)C1=O` [Compound 433], the IC50 was less than 100 nM.
